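Exposure lasted 48 hours, with cells grown in 96-well plates and compounds tested at five concentrations. GI50 = concentration required for 50% inhibition of growth. TGI marks complete inhibition of growth.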
How the values were obtained:
Assay in all cases: growth of human tumour cells (NCI), 48 h
[1] = system: SK-MEL-2 melanoma
[2] = system: CCRF-CEM leukemia
[3] = system: SF-539 CNS
[4] = system: HCT-15 colon
[5] = system: OVCAR-8 ovarian
[6] = system: RPMI-8226 leukemia
[7] = system: MDA-MB-231 breast
[8] = system: NCI-H226 lung
[9] = system: NCI-H23 lung
[10] = system: UACC-62 melanoma
[11] = system: SF-268 CNS

SMILES	GI50 [1]	TGI [1]	GI50 [2]	TGI [2]	GI50 [3]	TGI [3]	GI50 [4]	TGI [4]	GI50 [5]	TGI [5]	GI50 [6]	TGI [6]	GI50 [7]	TGI [7]	GI50 [8]	TGI [8]	TGI [9]	TGI [10]	TGI [11]
COc1cc(/C=C2\CN(S(=O)(=O)c3ccc(C)cc3)C/C(=C\c3cc(CN4CCCC4)c(O)c(OC)c3)C2=O)cc(CN2CCCC2)c1O	1.87 µM	4.05 µM	0.0535 µM	3.74 µM	1.6 µM	3.1 µM	1.94 µM	5.83 µM	0.71 µM	2.92 µM	1.14 µM	3.17 µM	1.8 µM	3.53 µM	1.63 µM	3.16 µM	–	–	–
CO[C@](C(=O)OC[C@H]1[C@@H](COC(C)=O)[C@@H]2O[C@H]1c1cc3c(cc12)OCO3)(c1ccccc1)C(F)(F)F	–	91.3 µM	–	> 100 µM	–	–	–	> 100 µM	–	–	–	38.7 µM	–	> 100 µM	–	–	> 100 µM	> 100 µM	77.1 µM
Cc1ccc(C(=O)OC(C(=O)O)C(OC(=O)c2ccc(C)cc2)C(=O)O)cc1 (centres undefined) (tested in a mixture with another compound)	–	23.5 µM	–	17 µM	–	25.2 µM	–	17.6 µM	–	31.6 µM	–	9.23 µM	–	–	–	24.8 µM	12.8 µM	19.3 µM	28.3 µM
O=C(CC1Sc2ccccc2NC1=O)Nc1ccccc1[N+](=O)[O-] (centres undefined)	–	> 100 µM	–	> 100 µM	–	> 100 µM	–	> 100 µM	–	> 100 µM	–	> 100 µM	–	–	–	> 100 µM	> 100 µM	> 100 µM	> 100 µM
Oc1ccc(NCn2c(=S)sc3ccccc32)cc1	–	> 100 µM	–	92 µM	–	> 100 µM	–	> 100 µM	–	> 100 µM	–	> 100 µM	–	> 100 µM	–	–	> 100 µM	> 100 µM	> 100 µM

Source: PubChem BioAssay (NCI)
